Source: patent US5011847A, “2,5-diaryl tetrahydrofurans and analogs thereof as PAF antagonists” (Merck & Co., Inc., priority 1989, dated 1991)

Target: T1, PAF specific receptor binding site, human platelet membranes (Homo sapiens, UniProt P25105)
T1 construct: from tissue; host or cells: human platelets (plasma membrane suspension)
Assay: Inhibition of [3H] N-methylcarbamoyl-PAF binding to human platelet membranes
Details: trans configuration; for inhibition at 0.003 µM: 3 nM; for inhibition at 0.03 µM: 30 nM
Procedure: The compounds of formula (I) inhibit PAF-induced functions in both the cellular and tissue levels by changing the PAF binding to its specific receptor site. The ability of a compound of formula (I) to inhibit the PAF binding to its specific receptor binding site on rabbit or human platelet or PMN plasma membranes was measured by a recently developed assay.
The inhibition of ^3 [H]-PAF or ^3 [H]-N-methylcarbamoyl-PAF binding to the human or rabbit platelet or PMN plasma membrane by a PAF antagonist of formula (I) was determined by a method employing isotopic labeling and filtration techniques. Generally, a series of Tris-buffered solutions of the selected antagonist at predetermined concentrations were prepared. Each of these solutions contains 1 pmole of ^3 H-PAF, a known amount of the test antagonist, and a sufficient amount of the pH 7.5 Tris-buffer solution (10 mM Tris, 0.25% bovine serum albumin, and 150 mM NaCl per ml water) to make the final volume of 1 ml. After adding into a set of test tubes each with 100 μg of the platelet plasma membrane suspension (S. B. Hwang, et al., Biochemistry. Vol. 22, pp. 4756-4763, 1983) and one of the Tris-buffer solutions described above, the resulting mixture in each test tube was incubated at 0° C. for about one hour or until the reaction was complete. Two control samples, one of which (C1) contains all the ingredients described above except the antagonist and the other (C2) contains C 1 plus a 1000-fold excess of unlabeled PAF, were also prepared and incubated simultaneously with the test samples. After the incubation was completed, the contents of each test tube were filtered under vacuo through a Whatman GF/C fiberglass filter and the residue washed rapidly several times with a total of 20 ml cold (0°-5° C.) Tris buffer solution. Each washed residue was then suspended in 10 ml scintillation solution (Aquasol 2, New England Nuclear, Conn.) and the radioactivity was counted in a Packard Tri-Carb 460CD Liquid Scintillation System. Defining the counts from a test sample as "Total binding with antagonist"; the counts from the control sample C1, as "Total binding C1 "; and the counts from the control sample C2 as "non-specific binding C2 ", the percent inhibition of each test antagonist can be determined by the following equations: [formula]
Specific binding=(Total binding C1)-(non-specific binding C2)
*Inibition of the binding of [^3 H] Nmethylcarbamoyl-PAF to human

T1 sequence (P25105 whole entry): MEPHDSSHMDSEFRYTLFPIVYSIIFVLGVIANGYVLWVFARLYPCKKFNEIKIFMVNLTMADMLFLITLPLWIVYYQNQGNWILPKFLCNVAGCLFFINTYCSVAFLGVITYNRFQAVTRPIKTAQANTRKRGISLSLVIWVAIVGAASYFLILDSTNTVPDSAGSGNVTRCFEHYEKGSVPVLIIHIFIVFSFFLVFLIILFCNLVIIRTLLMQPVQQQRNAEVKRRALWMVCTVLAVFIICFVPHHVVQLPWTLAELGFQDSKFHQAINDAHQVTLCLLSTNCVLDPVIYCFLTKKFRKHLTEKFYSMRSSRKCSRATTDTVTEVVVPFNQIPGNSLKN

Row | SMILES | inhibition at 0.003 µM | inhibition at 0.03 µM
1 | CCCOc1c(OCC(C)=O)cc([C@@H]2CC[C@@H](c3cnc(OC)c(OC)c3)O2)cc1S(=O)(=O)CCCO (relative stereo) | 30% | 66%
2 | CCCOc1c(OCCCO)cc([C@@H]2CC[C@@H](c3cnc(OC)c(OC)c3)O2)cc1S(=O)(=O)CC(C)=O (relative stereo) [trans-2-[3-(2-oxopropyl)sulfonyl-4-n-propoxy-5-(3-hydroxypropoxy)phenyl]-5[5-(2,3-dimethoxy)pyridyl]tetrahydrofuran] | 43% | 87%
3 | CCCOc1c(OCCO)cc([C@@H]2CC[C@@H](c3cnc(OC)c(OC)c3)O2)cc1S(=O)(=O)CC(C)O (stereo partly drawn) [trans-2-[3-(2-Hydroxypropyl)sulfonyl-4-n-propoxy 5-(2-hydroxyethoxy)phenyl]-5-[5-(2,3-dimethoxy)pyridyl]tetrahydrofuran] | 13% | 58%
4 | CCCOc1c(OCC(C)=O)cc([C@@H]2CC[C@@H](c3cnc(OC)c(OC)c3)O2)cc1S(=O)(=O)CC(C)O (stereo partly drawn) [trans-2-[3-(2-Hydroxypropyl)sulfonyl-4-n-propoxy-5-(2-oxopropoxy)phenyl]-5-[5-(2,3-dimethoxy)pyridyl]tetrahydrofuran] | 31% | 81%
5 | CCCOc1c(OCC(C)=O)cc([C@@H]2CC[C@@H](c3cnc(OC)c(OC)n3)O2)cc1S(=O)(=O)CC(C)O (stereo partly drawn) [trans-2-[3-(2-Hydroxypropyl)sulfonyl-4-n-propoxy-5-(2-oxopropoxy)phenyl]-5-[6-(2.3 dimethoxy)pyrazyl]tetrahydrofuran] | 42% | 81%
6 | CCCOc1c(OCCCO)cc([C@@H]2CC[C@@H](c3cnc(OC)c(OC)c3)O2)cc1S(=O)(=O)CC(C)O (stereo partly drawn) [trans-2-[3-(2-Hydroxypropyl)sulfonyl-4-n-propoxy-5-(3-hydroxypropoxy)phenyl]-5[5-(2,3-dimethoxy)pyridyl]tetrahydrofuran] | 16% | 75%
7 | CCCOc1c(OCC(C)O)cc([C@@H]2CC[C@@H](c3cnc(OC)c(OC)c3)O2)cc1S(=O)(=O)CCC (stereo partly drawn) [trans-2-[3-n-propylsulfonyl-4-n-propoxy-5-(2-hydroxypropoxy)phenyl]-5-[5-(2,3-dimethoxy)pyridyl]tetrahydrofuran] | 54% | 100%

Second part, the compound after the results:

Row | inhibition at 0.003 µM | inhibition at 0.03 µM | SMILES
8 | 12% | 66% | CCCOc1c(OCC(C)=O)cc([C@H]2CC[C@H](c3cccnc3)O2)cc1S(=O)(=O)CCC (relative stereo) [trans-2-[3-n-propylsulfonyl-4-n-propoxy-5-(2-oxopropoxy)phenyl]-5-(3-pyridyl) tetrahydrofuran]
9 | 63% | 93% | CCCOc1c(OCC(C)=O)cc([C@@H]2CC[C@@H](c3cnc(OC)c(OC)c3)O2)cc1S(=O)(=O)CCC (relative stereo) [trans-2-[3-n-propylsulfonyl-4-n-propoxy-5-(2-oxopropoxy)phenyl]-5-[5-(2,3-dimethoxy)pyridyl]tetrahydrofuran]
10 | 58% | 100% | CCCOc1c(OCC(C)=O)cc([C@@H]2CC[C@@H](c3cnc(OC)c(OC)n3)O2)cc1S(=O)(=O)CCC (relative stereo) [trans-2-[3-n-propylsulfonyl-4-n-propoxy-5-(2-oxopropoxy)phenyl]-5-[6-(2,3-dimethoxy)pyrazyl]tetrahydrofuran]
11 | 60% | 100% | CCCOc1c(OCC(C)O)cc([C@@H]2CC[C@@H](c3cnc(OC)c(OC)n3)O2)cc1S(=O)(=O)CCC (stereo partly drawn) [trans-2-[3-n-propylsulfonyl-4-n-propoxy-5-(2-hydroxypropoxy)phenyl]-5-[6-(2,3-dimethoxy)pyrazyl]tetrahydrofuran]
